Several values for one entry are separate records, joined by “and”; a condition that tells them apart may be missing. Identical values can stand only once. Entries after “also recorded” stand apart in the source; their conditions may differ.
Tests used:
[1] = test system: seizures in patients with Tuberous Sclerosis Complex (TSC); experiment: Expanded access compassionate use program: CBD added to baseline AED in children and young adults with treatment-resistant Tuberous Sclerosis Complex, seizure diaries; format: in vivo, human
Description: The terms “50% responder” and “50% reduction in seizure” are both terms used in clinical studies. In the present application the terms define the percentage of subjects that experienced a greater than or equal to 50% reduction in the total number of seizures during treatment with CBD in comparison to the number experienced during the baseline period before the CBD was administered.
These subjects were tested with a highly purified extract of cannabidiol (CBD) obtained from a cannabis plant. The participants in the study were part of an expanded access compassionate use program for CBD.
All of these patients diagnosed with TSC presented with one or more types of seizure including tonic, tonic-clonic, atonic, absence, focal seizures with impairment and focal seizures which evolve to secondary generalised seizures.
All patients entered a baseline period of 4 weeks when parents/caregivers kept prospective seizure diaries, noting all countable seizure types.
The patients then received a highly purified CBD extract (greater than 98% CBD w/w) in sesame oil, of known and constant composition, at a dose of 5 mg/kg/day in addition to their baseline anti-epileptic drug (AED) regimen.
Laboratory testing for hematologic, liver, kidney function, and concomitant AED levels was performed at baseline, and after CBD therapy.
All patients were taking at least two concomitant anti-epileptic drugs. These included clobazam; diazepam; lacosamide; lamotrigine; levetiracetam; lorazepam; nordiazepam; n-desmethylclobazam; phenytoin; valproic acid; zonisamide. The average number of concomitant antiepileptic drugs being taken was 2.7. The majority took either clobazam and/or valproic acid.
There were 12 children and young adult patients who received at least 3 months of treatment all of whom suffered from treatment-resistant epilepsy with a diagnosis of Tuberous Sclerosis Complex (TSC).

[2] = Solubility of the drug substance in water; format: physicochemical
Text: The drug substance, CBD is insoluble in water. Sesame oil was selected as an excipient to solubilize the drug substance.

[3] = test system: seizures in adult patients; conditions: 200 mg/day of pure CBD; four adult patients; cited from earlier work
[4] = test system: seizures in adult patients with generalized epilepsy; conditions: eight adult patients with generalized epilepsy; cited from earlier work
seizures in mice = conditions: after pro-convulsant drugs or an electric current; cited from earlier work
[5] = test system: seizures in institutionalized adult patients; conditions: 200 mg/day of pure CBD; twelve institutionalized adult patients; open label; cited from earlier work
[6] = test system: seizures in a child with Lennox-Gastaut syndrome; conditions: CBD in an oily solution; cited from earlier work
seizures = conditions: as described in the literature; cited from earlier work
[7] = share of patients, n = 2, after 12 weeks of treatment
[8] = share of patients, n = 3, after 12 weeks of treatment
[9] = share of patients, n = 5, after 12 weeks of treatment
[10] = share of patients, n = 10, after 12 weeks of treatment
[11] = share of patients, n = 14, after 12 weeks of treatment

Q: Which results are given for C=C(C)[C@@H]1CCC(C)=C[C@H]1c1c(O)cc(CCCCC)cc1O [CBD, cannabidiol]?
A: patients with at least a fifty percent reduction in the total number of seizures ([1]; TSC patients resistant to existing AED): half of the patients; patients treated in whom total seizure frequency was reduced ([1]; TSC patients, 12 treated): over 80%; effect on incidence of generalised seizure types tonic, atonic, tonic-clonic and absence seizures ([1]; TSC patients, result in words): dramatically reduce; also recorded: virtually eliminate; effect on the number of focal seizures with impairment ([1]; TSC patients, result in words): markedly reduced; TSC patients with a decrease in total seizure frequency ([1]; after 3 months of therapy, 12 patients): ten out of 12; >50% reduction in seizures (total number of seizures) ([1]; individual TSC subjects 1-12, after 12 weeks treatment): Yes (6×) and No (6×); Change in baseline (%) for total number of seizures ([1]; individual TSC subjects 1-12, after 12 weeks treatment, CBD 5 up to 25 mg/kg/day added to AED): −93.7% and −15.0% and −71.0% and −33.5% and −80.2% and 0.4% and −100.0% and −9.8% and −74.4% and 108.0% and −39.2% and −63.2%; TSC patients with a greater than 50% reduction in total seizures ([1]; over the 12 weeks of treatment, 12 patients): six of the 12; effect on the number of seizures ([1]; patients that do not respond well to existing AED, result in words): significantly reduces; <50% reduction in seizures, absence seizures [1, 7]: 0%; <50% reduction in seizures, focal seizures evolving to secondary generalisation [1, 7]: 50%; <50% reduction in seizures, tonic-clonic seizures [1, 7]: 0%; >50% reduction in seizures, absence seizures [1, 7]: 100%; >50% reduction in seizures, focal seizures evolving to secondary generalisation [1, 7]: 50%; >50% reduction in seizures, tonic-clonic seizures [1, 7]: 100%; <50% reduction in seizures, atonic seizures [1, 8]: 0%; >50% reduction in seizures, atonic seizures [1, 8]: 100%; <50% reduction in seizures, tonic seizures [1, 9]: 25%; >50% reduction in seizures, tonic seizures [1, 9]: 75%; <50% reduction in seizures, focal seizures with impairment [1, 10]: 45%; >50% reduction in seizures, focal seizures with impairment [1, 10]: 55%; <50% reduction in seizures, total focal seizures [1, 11]: 55%; >50% reduction in seizures, total focal seizures [1, 11]: 45%; average reduction in the total number of seizures in the responders ([1]; the patients with at least 50% reduction, 12 weeks of treatment): 80.4% and 80%; solubility in water [2]: insoluble; patients who became seizure free [3]: two of the four; patients with a marked reduction of seizures [4]: 4; prevention of seizures (seizures in mice): able to prevent seizures; controlling seizures [5]: ineffective; seizure frequency [6]: improvement

Q: For CCCCCc1cc(O)c2c(c1)OC(C)(C)[C@@H]1CCC(C)=C[C@@H]21 [THC, tetrahydrocannabinol], which effect on seizures (seizures) is on record?
A: pro-convulsant

— patent publication US11065209B2, “Use of cannabidiol in the treatment of epilepsy” (GW Research Limited, priority 2015, dated 2021)
